Assay results published in US11559512B2, “Composition for prevention, alleviation, and/or treatment of heat illness” (priority 2017, dated 2023).
“Also recorded” adds a separate entry of the source. Where two headings read alike, the source gives them in different places.

Columns and labels:
[1] = system: human vascular endothelial cells (HUVECs)
Procedure: Then, 2 mL of trypsin/EDTA was added to the cells, and the cells were detached by incubation at 37° C. in a 5% CO2 environment. After the cell detachment, 5 mL/dish of a culture medium was added, and the cells were transferred to a 15-mL tube and centrifuged at 1200 rpm for 5 minutes in a centrifuge. The supernatant was removed, and then, the number of cells was adjusted to a cell density of 5×10^4 cells/mL using a cell counting kit by the addition of 5 mL of a culture medium. Then, two 6-well plates were used, and the solution with the adjusted HUVEC density was inoculated at 4 mL/well to 3 wells of each plate. Each phytochemical component was added at 4 μL (final concentration: 10 μM)/well to one well of each plate. Also, a phytochemical dissolving solution DMSO was added at 4 μL/well to the remaining wells to prepare a control. […]
Serial dilutions of auraptene were added to the cells, and the cell death of the HUVECs caused by heat stress was observed by crystal violet staining.

[2] = system: fat droplets in human vascular endothelial cells (HUVECs); test: Intracellular fat droplets, BODIPY staining, confocal microscopy; assay type: cell-based
Procedure: (§1) Then, nine 35-mm dishes were provided, and 2 mL/dish of the solution with the adjusted HUVEC density was inoculated. Auraptene (10 mM) and tangeretin (10 mM) were each added at 2 μL (final concentration: 10 μM)/dish to three dishes. Also, DMSO was added at 2 μL/dish to the remaining 3 dishes to prepare a control.
The supernatant of the HUVECs cultured in each 35-mm dish was removed, and 2 mL/dish of 4% paraformaldehyde in a phosphate buffer solution was added. The cells were left standing at room temperature for 1 hour for cell fixation. The solution was removed, and then, the cells were rinsed twice. 1 mL/dish of BODIPY diluted 2000-fold with a FACS buffer was added, and the cells were left standing at room temperature for 30 minutes in the dark for reaction.
(§2) The solution was removed, and then, the cells were rinsed twice. Two drops of Diamond Antifade Mountant with DAPI were added to the cells, and a round glass cover was put on the cells, followed by fluorescence photographing under a confocal laser scanning microscope.

PPARγ = PPARγ expression in HUVECs, antibody staining, confocal microscopy; assay type: cell-based, human
Procedure: as §1, with “Then, six” for “Then, nine”, “to two” for “to three”, “remaining 2” for “remaining 3”
(§3) The supernatant of the HUVECs cultured in each 35-mm dish was removed, and 2 mL/dish of 4% paraformaldehyde in a phosphate buffer solution was added. The cells were left standing at room temperature for 1 hour.
(§4) The solution was removed, and then, the cells were rinsed twice. 2 mL/dish of 0.5% Triton-X00 (Wako Pure Chemical Industries, Ltd.) in PBS was added, and the cells were left standing at room temperature for 5 minutes. The solution was removed, and then, the cells were rinsed twice. 1 mL/dish of an anti-ABCD3 antibody, an anti-PPARα antibody or an anti-PPARγ antibody, each of which was diluted 150-fold with a FACS buffer, was added, and the cells were left standing at room temperature for 2 hours for reaction.
as §2, with “The solution was removed, and then, the cells were rinsed twice. 1 mL/dish of DyLight 649-labeled anti-Rabbit IgG antibody diluted 500-fold with a FACS buffer was added, and the cells were left standing at room temperature for 1 hour in the dark for reaction. The” for “The”

[3] = system: human vascular endothelial cells (HUVECs); test: DiOC6 / PI staining and flow cytometry of HUVECs under heat stress load; assay type: cell-based; settings: heat stress load 40° C. for 2 days, flow cytometry, vs DMSO
Procedure: Two days later, the culture solution of each well was removed with an aspirator. […] The supernatant was removed, and then, 5 mL of a culture medium at 37° C. was added to the cells and stirred. After the stirring, DiOC6 (final concentration: 80 nM) was added to each 15-mL tube and reacted at the same temperature as the culture temperature for 30 minutes.
The supernatant was removed, and then, 1 mL of a culture medium was added to the cells, and 2 μL of PI (Sigma-Aldrich Co. LLC) was added. The cells thus supplemented were transferred to a FACS tube and measured in a flow cytometer (BD).
In order to quantify the effects, the cytotoxicity suppressive effects of auraptene (component A) and tangeretin (component T) inhibiting the cell death caused by the load of heat stress were quantified using DiOC6 staining and flow cytometry as described above. The DiOC6 dye is a reagent for measuring mitochondrial activity and is a reagent that can perform measurement based on the attenuation of the amount of fluorescence by cytotoxicity (cell death, etc.).

ABCD3 = ABCD3 expression in HUVECs, antibody staining, confocal microscopy; assay type: cell-based, human; settings: usual culture and heat stress load (40° C. for 3 days), vs DMSO
Procedure: as §1, with “Then, six” for “Then, nine”, “to two” for “to three”, “remaining 2” for “remaining 3”
as §3, §4
The solution was removed, and then, the cells were rinsed twice. […] Two drops of Diamond Antifade Mountant with DAPI were added to the cells, and a round glass cover was put on the cells, followed by fluorescence photographing under a confocal laser scanning microscope.

PPARα = PPARα expression in HUVECs, antibody staining, confocal microscopy; assay type: cell-based, human
Procedure: as §1, with “Then, six” for “Then, nine”, “to two” for “to three”, “remaining 2” for “remaining 3”
as §3, §4
as §2, with “The solution was removed, and then, the cells were rinsed twice. 1 mL/dish of DyLight 649-labeled anti-Rabbit IgG antibody diluted 500-fold with a FACS buffer was added, and the cells were left standing at room temperature for 1 hour in the dark for reaction. The” for “The”

[4] = HUVECs, 40° C. for 2 days, final concentration 10 μM
[5] = Table 2 summary, HUVECs 40° C., 37° C. as comparative control
[6] = HUVECs, 40° C. and 1 day, 10 μM, vs DMSO

**Q.** For `C[N+](C)(C)C[C@H](O)CC(=O)[O-]` [L-carnitine, reference compound], which “concentration at which the cell death suppressive effect was confirmed (value in brackets)” value ([1]; HUVECs, 40° C. for 3 days, crystal violet staining) is on record?
**A.** 15 mM

**Q.** And the “concentration at which the cell death suppressive effect was observed” value ([1]; HUVECs, 40° C. for 3 days, 0, 1.2 or 2.5 mg/ml)?
**A.** 2.5 mg/mL

**Q.** And the “concentration required relative to auraptene” value ([1]; cell death suppressive effect, HUVECs 40° C.)?
**A.** approximately 25000 times

**Q.** How did the “suppression of cytotoxicity caused by the load of heat stress (phase contrast microscopic observation)” value (shortened to “suppression of cytotoxicity caused”) [1] turn out when `CC(C)(Oc1ccc(CCNC(=O)c2ccc(Cl)cc2)cc1)C(=O)O` [bezafibrate, reference compound] was run?
**A.** unable to suppress the cytotoxicity

**Q.** With `C[N+](C)(C)[C@@H](Cc1c[nH]c(=S)[nH]1)C(=O)[O-]` [ergothioneine, reference compound] as the compound, how does the “suppression of cytotoxicity caused” value [1, 4] read?
**A.** unable to suppress the cytotoxicity

**Q.** For `COc1ccc(-c2cc(=O)c3c(OC)c(OC)c(OC)c(OC)c3o2)cc1OC` [nobiletin, reference compound], which “suppression of cytotoxicity caused” value [1, 4] is on record?
**A.** unable to suppress the cytotoxicity

**Q.** Which “suppression of cytotoxicity caused” value [1, 4] does the source give for `COc1ccc2ccc(=O)oc2c1CC=C(C)C` [osthol, reference compound] here?
**A.** unable to suppress the cytotoxicity

**Q.** With `Oc1ccc(C=Cc2cc(O)cc(O)c2)cc1` [resveratrol, reference compound] as the compound, how does the “suppression of cytotoxicity caused” value [1] read?
**A.** unable to suppress the cytotoxicity

**Q.** Which “suppression of cytotoxicity caused” value [1] does the source give for `C[S+]([O-])CCCCN=C=S` (centres unmarked) [sulforaphane, reference compound] here?
**A.** unable to suppress the cytotoxicity

**Q.** For `COc1ccc(-c2cc(=O)c3c(OC)c(OC)c(OC)c(OC)c3o2)cc1` [tangeretin, 4′,5,6,7,8-pentamethoxyflavone], which “amount of fat droplets under heat stress load” value ([2]; HUVECs, 40° C. for 2 days, 10 μM, BODIPY, vs DMSO) is on record?
**A.** decrease in the amount of fat droplets; also recorded: decreased the amount of fat droplets

**Q.** And the “amount of fat droplets at usual culture” value ([2]; HUVECs, usual culture (37° C.), 10 μM, vs DMSO)?
**A.** no change in the amount of fat droplets

**Q.** And the “Amount of fat droplets” value [2, 5]?
**A.** Decreased

**Q.** What about the “expression of PPARγ” value (PPARγ; [6]) of the same compound?
**A.** increasing effect was not observed

**Q.** And the PPARγ (PPARγ; [5])?
**A.** Increased

**Q.** And the “Cytotoxicity (cell death)” value [1]?
**A.** Suppressed

**Q.** What about the “cell survival by crystal violet staining” value ([1]; HUVECs cultured at 40° C. for 3 days, vs DMSO) of the same compound?
**A.** evidently increased cell survival

**Q.** And the “number of DiOC6 staining-positive cells (suppression of cytotoxicity, cell death)” value [3]?
**A.** increased the number of DiOC6 staining-positive cells

**Q.** What about the “change in the expression of ABCD3” value (ABCD3) of the same compound?
**A.** change in the expression of ABCD3 was not observed

**Q.** And the “expression of PPARα” value (PPARα; [6])?
**A.** increase in the expression of PPARα

**Q.** What about the PPARα (PPARα; [5]) of the same compound?
**A.** Increased
